Experimental findings from patent publication US8138220B2, “[2-(6-fluoro-1H-indol-3-ylsulfanyl)benzyl]methyl amine for the treatment of affective disorders” (H. Lundbeck A/S, priority 2006, dated 2012) are described below.

The subject of assay [1] is Rats. Kind of assay: Impact on sleep architecture, EEG/EMG in rats. It is filed as in vivo, rat. To be noted: for % of time spent in REM / % of time spent in SWS / % of time spent in Wake: second hour of recording; for sleep latency: time from injection until first consolidated sleeping episode. As to the method: Rats were implanted with EEG and EMG electrodes to monitor the brain electrical activity and the muscle electrical activity, respectively. The electrodes were connected to a radio transmitter allowing a continuous collection of activity data from freely moving, undisturbed and home-caged animals. The EEG and EMG data were visually scored to determine the arousal states wake, SWS and REM sleep. A group of 10 rats were administered vehicle or the compound of the present invention corresponding to 0.4 mg/kg and 4 mg/kg of the free base. A William's square cross over design was applied so that each animal receives each treatment once.

For assay [2], the target named is T1, 5-HT2A receptors (Homo sapiens, UniProt P28223). Kind of assay: 5-HT2A receptor affinity (MDL Pharmaservices catalogue number 271650). The assay is classed as binding. Details: purchased MDL Pharmaservices 271650. To be noted: Cheng Prusoff from IC50, 5 concentrations. The method, then: 5 concentration of compound (1, 10, 30, 100, 1000 nM) were used to calculate the IC50 value. Ki was calculated from the Cheng Prusoff equation Ki=(IC50/(1+([L]/Kd)) Affinity was determined at MDL Pharmaservices catalogue number 271650.
T1 sequence (P28223 whole entry): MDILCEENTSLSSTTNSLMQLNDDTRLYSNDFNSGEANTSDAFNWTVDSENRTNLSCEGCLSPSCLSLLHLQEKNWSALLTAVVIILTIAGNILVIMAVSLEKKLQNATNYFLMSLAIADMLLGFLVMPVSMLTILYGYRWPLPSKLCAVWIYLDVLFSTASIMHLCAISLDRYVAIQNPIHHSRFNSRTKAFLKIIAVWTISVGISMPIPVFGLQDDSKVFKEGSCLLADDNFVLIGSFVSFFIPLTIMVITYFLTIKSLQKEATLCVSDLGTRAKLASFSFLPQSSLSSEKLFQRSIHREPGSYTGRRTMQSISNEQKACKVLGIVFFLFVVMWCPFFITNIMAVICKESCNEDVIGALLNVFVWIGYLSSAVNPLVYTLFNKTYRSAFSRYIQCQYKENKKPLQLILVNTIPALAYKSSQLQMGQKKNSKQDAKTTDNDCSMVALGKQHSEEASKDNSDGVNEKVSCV

The target of assay [3] is T2, α1A receptor (Homo sapiens, UniProt P35348).
T2 construct: expressed in transfected cells
T2 sequence (P35348 1-466): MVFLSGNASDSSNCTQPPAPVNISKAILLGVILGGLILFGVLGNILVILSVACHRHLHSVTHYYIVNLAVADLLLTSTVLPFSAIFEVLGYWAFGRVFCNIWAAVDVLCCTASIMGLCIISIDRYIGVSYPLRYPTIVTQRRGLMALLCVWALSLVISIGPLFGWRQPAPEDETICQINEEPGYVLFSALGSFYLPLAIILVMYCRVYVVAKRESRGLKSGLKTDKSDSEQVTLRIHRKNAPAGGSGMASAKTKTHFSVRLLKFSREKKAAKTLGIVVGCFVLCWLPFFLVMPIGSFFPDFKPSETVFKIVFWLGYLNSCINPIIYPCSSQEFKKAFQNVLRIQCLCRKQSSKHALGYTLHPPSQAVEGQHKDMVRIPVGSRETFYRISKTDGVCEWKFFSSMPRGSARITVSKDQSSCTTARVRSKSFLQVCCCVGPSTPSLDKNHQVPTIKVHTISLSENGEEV
Kind of assay: α1A receptor affinity, [3H]-Prazosin binding to membranes. The following applies: Cheng Prusoff. As to the method: On the day of the experiments membranes (see below for description of membrane preparation) are thawed and homogenized in buffer using an ultra turrax and diluted to the desired concentration (5 μg/well˜5 μg/900 μl, store on ice until use).
The experiment is initiated by mixing of 50 μl test compound, 50 μl [^3H]-Prazosin and 900 μl membranes, and the mixture is incubated for 20 minutes at 25° C. Non-specific binding is determined in the presence of 10 μM WB-4101 and the total binding is determined in the presence of buffer. After the incubation, bound ligand is separated from unbound by filtration through Unifilter GF/B, presoaked in 0.1% PEI for 30 minutes, using a Tomtec Cell Harvester program (D4.2 . . . 4) 96 well. Filters are washed 3 times with 1 ml ice-cold buffer, dried at 50° C. and 35 μl scintillation liquid/well is added to the filters. Bound radioactivity is counted in a Wallac OY 1450 MicroBeta. The affinity (Ki 10 nM) is calculated from Y=100/(1+10^(X-logIC50^)) where Y denotes % binding and X denotes the concentration of compound. […] Ki was calculated from the Cheng Prusoff equation Ki=(IC50/(1+([L]/Kd))
Cells were grown to 95% confluence, washed twice with buffer (50 mM Tris pH 7.7, 125 mM NaCl) and detached by scraping in a volume of 10 ml buffer/160 cm^2. […] Protein concentration was measured with BCA™ (Pierce #23223+23224).

For assay [4], the target named is T1, 5-HT2A receptors. Kind of assay: 5-HT2A functional assay, 5-HT evoked Ca2+ release in CHO cells (FLIPR).
Experimental: The experiment was carried out as follows. 2 or 3 days before the experiment CHO cells expressing approximately 250 fmol/mg 5-HT2A receptors are plated at a density sufficient to yield a mono-confluent layer on the day of the experiment. […] Lacer intensity was set to a suitable level to obtain basal values of approximately 8000-10000 fluorescence units. The variation in basal fluorescence should be less than 10%. […] Test substances are added to the cells 5 minutes before the 5-HT.

“And” between values parts separate entries of the source, which are not always exact repeats. Equal entries are not always repeated.

In the case of `CNCc1ccccc1Sc1c[nH]c2cc(F)ccc12` [compounds of the present invention, [2-(6-fluoro-1H-indol-3-ylsulfanyl)benzyl]methyl amine], the “% of time spent in REM” value in assay [1] (0.4 mg/kg free base) and in assay [1] (4.0 mg/kg free base) was 0.00% throughout. Moreover, the results for the “% of time spent in SWS” value in assay [1] (0.4 mg/kg free base) and in assay [1] (4.0 mg/kg free base) were 62.08% and 69.97%, respectively. Besides, the “% of time spent in Wake” value in assay [1] (0.4 mg/kg free base) was 37.92%; in assay [1] (4.0 mg/kg free base), 30.03%. For the same molecule, the values for the sleep latency in assay [1] (0.4 mg/kg) and in assay [1] (4.0 mg/kg) were 26.43 min and 20.62 min, respectively. In addition, the inhibition constant Ki in assay [2] was 14 nM; in assay [3], 14 nM and 10 nM. The Kb in assay [4] was 130 nM. The pA2 in assay [4] (schild analysis, CHO cells expressing 5-HT2A, 5-HT curves with 150, 400, 1500, 4000 nM compound) is listed as 6.88.

As a reminder, the Ki is a dissociation constant, usually derived from enzyme kinetics or from competition with a known ligand. Low readings indicate tighter binding, high ones weaker binding. As a reminder, the pA2 is a measure of antagonist potency on a negative log scale. High values mean higher antagonist potency, low ones lower antagonist potency.
